According to patent publication EP0204284A2, “A novel lipase” (SAPPORO BREWERIES LIMITED, priority 1985, dated 1986):
Entries after “also recorded” stand apart in the source; their conditions may differ. Where two headings read alike, the source gives them in different places.

Assays:
lipase [1] = format: biochemical, Pseudomonas fragi 22.39B; conditions: for Effect of metal ions on the enzyme (in words): summary statement
Method: Thus, the chemical and physical properties, by which the inventive novel lipase is characterized, are as described below. The activity of the enzyme has been determined by the PVA emulsion method proposed by Yamada, et al. and described in Journal of the Agricultural Chemical Society of Japan, volume 36, page 860 (1962) with some modifications if not mentioned otherwise, taking an amount of the enzyme liberating a micro- equivalent of a fatty acid for 1 minute as one unit (U) (see Japanese Patent Publication 56-28517).
The influence of metal ions on the enzymatic actvity was examined by keeping a 9:1 by volume mixture of a 5U/ml solution of the enzyme and a 10 mM solution of the metal ions at 25°C for 30 minutes followed by the determination of the residual activity of the enzyme in the solution. No calcium chloride was contained in the reaction mixture.

lipase [2] = assay: Influence of surface active agents on the enzymatic activity (residual activity); format: biochemical, Pseudomonas fragi 22.39B; conditions: for Residual activity, %: 9:1 by volume mixture of 10 U/ml enzyme solution and 4% aqueous solution of surface active agent, 25°C, 30 minutes; for Effect of surface active agents on the enzyme (in words): summary statement
Method: Thus, the chemical and physical properties, by which the inventive novel lipase is characterized, are as described below.
Similarly, the influence of surface active agents on the enzymatic activity was examined by keeping a 9:1 by volume mixture of a 10 U/ml solution of the enzyme and a 4% aqueous solution of the surface active agent at 25°C for 30 minutes followed by the determination of the residual activity of the enzyme in the solution.

lipase [3] = assay: Substrate specificity: relative rate of decomposition of esters, oils and fats (shaking method); format: biochemical, Pseudomonas fragi 22.39B; conditions: for Relative rate of decomposition, %: ester as the substrate, triolein as the reference (100), shaking method, pH 9.0, 37°C, 30 minutes; for Activity of the enzyme for the decomposition of the substrate (in words): summary statement
Description: The enzyme is active for the decomposition of the substrate, such as various kinds of esters and naturally occurring oils and fats. Tables 1-1 and 1-2 given below give the relative rate of decomposition of esters (Table 1-1) and naturally occurring oils and fats (Table 1-2) in % taking triolein and olive oil, respectively, as the reference.
Different from the above mentioned standard procedure of the PVA emulsion method, the results tabulated in Tables 1-1 and 1-2 were obtained by the shaking method according to the conditions and procedures described below.
The solution described above was taken in an Erlenmeyer flask of 100 ml capacity and shaken for 30 minutes in a thermostat at 37°C at a rate of 90 rpm along an 8-shaped line. After completion of the above mentioned reaction time, 20 ml of a 1:1 mixture of acetone and ethyl alcohol were added to the flask and the resultant solution was titrated within a length of time with a 0.05N aqueous solution of sodium hydroxide using phenol phthalein as the indicator.

lipase [4] = conditions: Biochim. Biophys. Acta 488, 353-358 (1977); cited from earlier work
lipase [5] = target: lipase (Pseudomonas aeruginosa, UniProt P26876); conditions: Biochim. Biophys. Acta 206, 380-391 (1970); cited from earlier work
lipase [6] = conditions: J. Ferment. Technol. 49, 128 (1971); Japanese Patent Publication 50-25553; cited from earlier work
lipase [7] = target: T1, lipase (Pseudomonas fragi, UniProt P08658); conditions: J. Gen. Microbiol. 48, 317-328 (1967); cited from earlier work
T1 sequence (P08658 1-293): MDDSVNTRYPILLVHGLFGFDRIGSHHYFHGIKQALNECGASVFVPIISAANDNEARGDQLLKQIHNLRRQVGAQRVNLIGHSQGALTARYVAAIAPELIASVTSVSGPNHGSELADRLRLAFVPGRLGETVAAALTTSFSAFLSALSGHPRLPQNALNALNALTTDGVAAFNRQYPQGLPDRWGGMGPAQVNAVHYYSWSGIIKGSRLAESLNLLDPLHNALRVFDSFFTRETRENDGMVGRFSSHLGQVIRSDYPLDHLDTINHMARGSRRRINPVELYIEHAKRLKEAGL

lipase [8] = conditions: Biochim. Biophys. Acta 488, 353-358 (1977); cited from earlier work; remark: listed apart in the source
lipase [9] = conditions: J. Ferment. Technol. 49, 128 (1971); Japanese Patent Publication 50-25553; cited from earlier work; remark: listed apart in the source
[10] = 9:1 by volume mixture of 5U/ml enzyme solution and 10 mM metal ion solution, 25°C, 30 minutes, no calcium chloride

lipase (Pseudomonas aeruginosa, UniProt P26876), sequence (P26876 27-311): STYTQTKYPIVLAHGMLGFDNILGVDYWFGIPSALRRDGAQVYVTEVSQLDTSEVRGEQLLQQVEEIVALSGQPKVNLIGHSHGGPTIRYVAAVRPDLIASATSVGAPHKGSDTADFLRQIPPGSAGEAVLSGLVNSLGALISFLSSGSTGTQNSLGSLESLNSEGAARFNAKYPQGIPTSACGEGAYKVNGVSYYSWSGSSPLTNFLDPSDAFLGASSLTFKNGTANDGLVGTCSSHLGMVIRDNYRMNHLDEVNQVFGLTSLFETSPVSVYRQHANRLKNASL

Compound: [Cl-].[Cl-].[Mg+2] [MgCl2]
- Residual activity, % (lipase [1]; [10]): 97.2%

Compound: Sorbitan monooleate [Sorbitan monooleate (Span 80)]
- Residual activity, % (lipase [2]): 56%
- Relative rate of decomposition, % (lipase [3]): 36%

Compound: NaCl
- Residual activity, % (lipase [1]; 1000 µM): 98.0%

Compound: [Cl][Ni][Cl] [NiCl2]
- Residual activity, % (lipase [1]; [10]): 98.9%

Compound: [Cl][Sn][Cl] [SnCl2]
- Residual activity, % (lipase [1]; [10]): 79.8%

Compound: CCCCCCCCCCCCCCCC(=O)OCC(COC(=O)CCCCCCCCCCCCCCC)OC(=O)CCCCCCCCCCCCCCC [tri- palmitin]
- Substrate specificity (in words) (lipase [4]): Active

Compound: CCCC(=O)OCC(COC(=O)CCC)OC(=O)CCC [Tributyrin]
- Substrate specificity (in words) (lipase [5]): Active
- Substrate specificity (in words) (lipase [6]): Active
- Relative rate of decomposition, % (lipase [3]): 243%
- Activity of the enzyme for the decomposition of the substrate (in words) (lipase [3]): highly active
- Substrate specificity (in words) (lipase [7]): Active

Compound: [Cl][Hg][Cl] [HgCl2, mercury (II) chloride]
- Residual activity, % (lipase [1]; [10]): 83.5%
- Activation and deactivation (in words) (lipase [8]): Almost no deactivation
- Activation and deactivation (in words) (lipase [9]): Inhibited

Compound: [Cl-].[Cl-].[Zn+2] [ZnCl2, zinc chloride]
- Residual activity, % (lipase [1]; [10]): 34.9%
- Effect of metal ions on the enzyme (in words) (lipase [1]): Deactivated
- Effect of metal ions on the enzyme (in words) (lipase [1]; listed as Zn^2+): deactivated; also recorded: deactivating effect

Compound: copper sulfate
- Activation and deactivation (in words) (lipase [9]): Inhibited

Compound: [Cl-].[Cl-].[Co+2] [CoCl2]
- Residual activity, % (lipase [1]; [10]): 86.6%

Compound: Polyoxyethylene (10) octyl phenyl ether
- Residual activity, % (lipase [2]): 105%
- Effect of surface active agents on the enzyme (in words) (lipase [2]): somewhat increased

Compound: CCCCCCCC/C=C\CCCCCCCC(=O)OCCCC [Butyl oleate]
- Relative rate of decomposition, % (lipase [3]): 95%
- Activity of the enzyme for the decomposition of the substrate (in words) (lipase [3]): Active; also recorded: good activity

Compound: CCCCCCCCCCCCCC(=O)OCC(COC(=O)CCCCCCCCCCCCC)OC(=O)CCCCCCCCCCCCC [trimyristin]
- Substrate specificity (in words) (lipase [6]): Active

Compound: [Cl][Ag] [AgCl]
- Residual activity, % (lipase [1]; [10]): 93.6%

Compound: [Cl][Mn][Cl] [MnCl2]
- Residual activity, % (lipase [1]; [10]): 81.7%

Compound: CCCCCCCCCCCC[N+](C)(C)C.[Cl-] [Dodecyl trimethyl ammonium chloride]
- Residual activity, % (lipase [2]): 35%

Compound: [Cl][Al]([Cl])[Cl] [AlCl3]
- Residual activity, % (lipase [1]; [10]): 93.6%

Compound: CCCCCCCCCCCC[N+](C)(C)C.[Br-] [n-Dodecyl trimethyl ammonium bromide]
- Residual activity, % (lipase [2]): 46%

Compound: [Cl][Fe]([Cl])[Cl] [FeCl3, iron (III) chloride]
- Residual activity, % (lipase [1]; [10]): 33.0%
- Effect of metal ions on the enzyme (in words) (lipase [1]): Deactivated
- Activation and deactivation (in words) (lipase [8]): Almost no deactivation
- Activation and deactivation (in words) (lipase [9]): Inhibited

Compound: [Cl][Pb][Cl] [PbCl2]
- Residual activity, % (lipase [1]; [10]): 78.0%

Compound: CCCCCCCCCCCCCCCC[N+](C)(C)C.[Br-] [Cetyl trimethyl ammonium bromide]
- Residual activity, % (lipase [2]): 12%
- Effect of surface active agents on the enzyme (in words) (lipase [2]): deactivated

Compound: CCCCCCCC/C=C\CCCCCCCC(=O)OC [Methyl oleate]
- Relative rate of decomposition, % (lipase [3]): 87%
- Activity of the enzyme for the decomposition of the substrate (in words) (lipase [3]; listed as methyl - oleate): good activity
- Activity of the enzyme for the decomposition of the substrate (in words) (lipase [3]; listed as methyl oleate): Active
- Substrate specificity (in words) (lipase [7]): inactive

Compound: CCCCCCCC/C=C\CCCCCCCC(=O)OCC [Ethyl oleate]
- Relative rate of decomposition, % (lipase [3]): 59%

Compound: Polyoxyethylene (10) oleyl ether
- Residual activity, % (lipase [2]): 55%

Compound: CC(=O)OCC(COC(C)=O)OC(C)=O [Triacetin]
- Relative rate of decomposition, % (lipase [3]): 108%
- Activity of the enzyme for the decomposition of the substrate (in words) (lipase [3]): highly active

Compound: Sorbitan monolaurate [Sorbitan monolaurate (Span 20)]
- Relative rate of decomposition, % (lipase [3]): 66%

Compound: LiCl
- Residual activity, % (lipase [1]; [10]): 97.5%

Compound: CCCC(=O)OC [Methyl butyrate]
- Substrate specificity (in words) (lipase [6]): little active
- Relative rate of decomposition, % (lipase [3]): 23%
- Substrate specificity (in words) (lipase [7]): inactive

Compound: [Ca+2].[Cl-].[Cl-] [CaCl2]
- Residual activity, % (lipase [1]; [10]): 105.5%

Compound: [Cl][Cu][Cl] [CuCl2]
- Residual activity, % (lipase [1]; [10]): 90.8%

Compound: [Cl][Fe][Cl] [FeCl2, iron (II) chloride]
- Residual activity, % (lipase [1]; [10]): 36.7%
- Effect of metal ions on the enzyme (in words) (lipase [1]): Deactivated

Compound: KCl
- Residual activity, % (lipase [1]; [10]): 98.0%

Compound: CCCCCCCC/C=C\CCCCCCCC(=O)OCCOCC(OCCO)C1OCC(OCCO)C1OCCO (stereo not drawn) [Polyoxyethylene sorbitan monooleate]
- Residual activity, % (lipase [2]): 115%
- Relative rate of decomposition, % (lipase [3]): 50%

Compound: CCCCCC(=O)OCC(COC(=O)CCCCC)OC(=O)CCCCC [tricaproin]
- Substrate specificity (in words) (lipase [4]): Active

Compound: [Ba+2].[Cl-].[Cl-] [BaCl2]
- Residual activity, % (lipase [1]; [10]): 92.7%

Compound: [Cl-].[Cl-].[Sr+2] [SrCl2]
- Residual activity, % (lipase [1]; [10]): 92.7%
